Article PMC9687798, “Atypical Substrates of the Organic Cation Transporter 1” (Biomolecules, 2022)
Entries after “also recorded” stand apart in the source; their conditions may differ. Each block holds one molecule with its values, some of them ahead of it.

Tests used:
Format in all cases: cell-based
OCT3 = molecular target: T1, OCT3 (Homo sapiens, UniProt O75751); test: Cellular uptake ratio, OCT3-overexpressing HEK293 cells vs empty vector; conditions: for OCT3 transport category: based on ratio uptake data at 1 µM
T1 construct: expressed in transfected cells; host or cells: HEK293, stably transfected; gift from Dr. Koepsell and Dr. Gorbulev (University of Würzburg)
T1 sequence (O75751 1-556): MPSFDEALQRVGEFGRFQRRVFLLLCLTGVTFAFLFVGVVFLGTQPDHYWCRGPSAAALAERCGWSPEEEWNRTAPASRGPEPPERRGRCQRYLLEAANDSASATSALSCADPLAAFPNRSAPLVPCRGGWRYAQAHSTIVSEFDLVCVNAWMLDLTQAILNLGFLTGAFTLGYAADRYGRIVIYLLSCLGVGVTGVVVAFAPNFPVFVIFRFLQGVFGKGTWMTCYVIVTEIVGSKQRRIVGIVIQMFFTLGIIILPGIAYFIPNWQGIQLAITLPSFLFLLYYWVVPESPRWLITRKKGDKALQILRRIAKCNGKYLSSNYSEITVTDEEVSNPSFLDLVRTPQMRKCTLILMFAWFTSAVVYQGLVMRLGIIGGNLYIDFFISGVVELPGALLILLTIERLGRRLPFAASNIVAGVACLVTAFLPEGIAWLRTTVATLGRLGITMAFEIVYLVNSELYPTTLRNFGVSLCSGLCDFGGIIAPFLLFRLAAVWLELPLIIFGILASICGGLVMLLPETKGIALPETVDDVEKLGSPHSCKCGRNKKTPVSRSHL
Outline: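 Flp-In HEK293 cells stably expressing transporter, or empty pcDNA5/FRT vector as control, incubated at 37 °C in HBSS with 10 mM HEPES, pH 7.4, with substrate. Uptake quantified by LC-MS with internal standard and normalised to total protein. Ratio = total uptake in transporter cells divided by that in empty-vector cells.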

OCT1 wild-type = molecular target: T2, OCT1 wild-type (Homo sapiens, UniProt O15245); test: Inhibition of OCT1-mediated prostaglandin uptake by MPP+; conditions: 1 mM inhibitor, 100 µM prostaglandin
T2 construct: expressed in transfected cells
Experimental: Forty-eight hours before the transport experiments, 600,000 cells were plated on 12-well plates pre-coated with poly-D-lysine and incubated at 37 °C with 5% CO2. The prepared 12-well plate with cells was positioned on a heating plate pre-warmed to 37 °C. After removing the medium, the cells were washed with 37 °C HBSS+ (10 mM HEPES in Hank’s balanced salt solution, pH 7.4). Then, one pre-defined concentration of a substrate was added to each well. The incubation period was stopped by adding 2 mL of 4 °C HBSS+ and removing the cells from the heating plate. The cells were washed twice with 4 °C HBSS+. For cell lysis, the cells were incubated for 15 min with 500 µL of 80% acetonitrile (LGC Standards, Wesel, Germany), which contained a respective internal standard (Table 1).
Figure 8 Cellular uptake of prostaglandins by OCT1. Cellular uptake ratios were determined in HEK293 cells that were transfected stably with OCT1 or its variants that were incubated with 1 µM (light blue), 10 µM (medium blue), and 100 µM (dark blue) of prostaglandin E2 and F2α for 120 s. […] Statistical significance of the uptake ratio between OCT1 and its variants and between inhibited and not inhibited OCT1 was determined using an unpaired students t-test with * p < 0.05, ** p < 0.01, and *** p < 0.001.

mutant human OCT1 D474N = molecular target: T3, mutant human OCT1 D474N (Homo sapiens, UniProt O15245, D474N); test: Cellular uptake by HEK293 cells overexpressing variant OCT1 D474N; conditions: 1, 10 and 100 µM, 120 s
T3 construct: expressed in transfected cells
T3 sequence (O15245 1-554 D474N): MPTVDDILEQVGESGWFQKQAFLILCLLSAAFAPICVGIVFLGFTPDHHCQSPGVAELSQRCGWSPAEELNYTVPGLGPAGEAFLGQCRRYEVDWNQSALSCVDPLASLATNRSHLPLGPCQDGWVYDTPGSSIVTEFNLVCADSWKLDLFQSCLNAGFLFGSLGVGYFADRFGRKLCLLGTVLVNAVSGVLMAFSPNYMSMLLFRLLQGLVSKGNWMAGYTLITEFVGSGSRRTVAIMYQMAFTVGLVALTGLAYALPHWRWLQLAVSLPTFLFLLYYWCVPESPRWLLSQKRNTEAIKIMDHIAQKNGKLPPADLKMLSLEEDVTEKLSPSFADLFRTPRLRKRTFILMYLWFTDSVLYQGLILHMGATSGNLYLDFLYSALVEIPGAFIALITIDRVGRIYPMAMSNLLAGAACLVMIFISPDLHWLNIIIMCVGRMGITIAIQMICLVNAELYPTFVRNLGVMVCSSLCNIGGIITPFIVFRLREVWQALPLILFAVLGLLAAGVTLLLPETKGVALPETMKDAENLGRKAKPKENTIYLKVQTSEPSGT

SMILES: Nc1ccn([C@H]2CC[C@@H](CO)O2)c(=O)n1 [Zalcitabine, zalcitabine]
OCT3 transport category (OCT3): 0 (no transport by OCT1, OCT2, and OCT3 occurred (i.e., no kinetic parameters or uptake ratio <2 without significance))

SMILES: N=C(N)c1ccc(OCCCCCOc2ccc(C(=N)N)cc2)cc1 [Pentamidine, pentamidine]
OCT3 transport category (OCT3): 0 (no transport by OCT1, OCT2, and OCT3 occurred (i.e., no kinetic parameters or uptake ratio <2 without significance))

uptake ratio by OCT3 (normalised to empty vector) (OCT3; 1 µM and 100 µM substance): below 2
SMILES: Nc1nc(=O)n([C@@H]2CS[C@H](CO)O2)cc1F [Emtricitabine, emtricitabine]

SMILES: N[C@@H](Cc1ccc(O)c(O)c1)C(=O)O [Levodopa, levodopa]
OCT3 transport category (OCT3): 0 (no transport by OCT1, OCT2, and OCT3 occurred (i.e., no kinetic parameters or uptake ratio <2 without significance))

SMILES: COc1cc(Cc2cnc(N)nc2N)cc(OC)c1OC [Trimethoprim, trimethoprim]
OCT3 transport category (OCT3): 0 (no transport by OCT1, OCT2, and OCT3 occurred (i.e., no kinetic parameters or uptake ratio <2 without significance))

SMILES: CCCCC[C@H](O)/C=C/[C@H]1[C@H](O)CC(=O)[C@@H]1C/C=C\CCCC(=O)O [Prostaglandin E2, prostaglandin E2]
uptake by OCT1 wild-type with the inhibitor MPP+ (OCT1 wild-type): statistically significantly reduced uptake
uptake of prostaglandins by OCT1 D474N in comparison to wild-type (mutant human OCT1 D474N): reduced to the level of the control cell line; also recorded: almost abolished

uptake by OCT1 wild-type with the inhibitor MPP+ (OCT1 wild-type): not statistically significant
SMILES: CCCCC[C@H](O)/C=C/[C@@H]1[C@@H](C/C=C\CCCC(=O)O)[C@@H](O)C[C@H]1O [Prostaglandin F2α, prostaglandin F2α]
uptake of prostaglandins by OCT1 D474N in comparison to wild-type (mutant human OCT1 D474N): reduced to the level of the control cell line
